Among the data in BindingDB's records for doi:10.1021/jm051134w (Parion Sciences, 2006) are IC50 values, retold here.

The target of this experiment is Amiloride-sensitive sodium channel (Canis familiaris). In words: Inhibition of dog bronchi prototypical epithelial sodium channel by electrophysiological assay.
`NC(=NCCCCc1ccc(OC2O[C@H](C(=O)O)[C@@H](O)[C@H](O)[C@H]2O)cc1)NC(=O)c1nc(Cl)c(N)nc1N` (stereo not given in full) [6-(4-{4-[N'-(3,5-diamino-6-chloropyrazine-2-carbonyl)-guanidino]butyl}phenoxy)-3,4,5-trihydroxytetrahydropyran-2-carboxylic acid]: it took 73 nM to reach half-maximal inhibition (IC50).

`NC(=NCCCCc1ccc(OCCO)cc1)NC(=O)c1nc(Cl)c(N)nc1N` [N-(3,5-diamino-6-chloropyrazine-2-carbonyl)-N'-{4-[4-(2-hydroxyethoxy)phenyl]-butyl}guanidine] had an IC50 of 9 nM.

As for `COc1ccc(COCCN=C(N)NC(=O)c2nc(Cl)c(N)nc2N)cc1` [N-(3,5-diamino-6-chloropyrazine-2-carbonyl)-N'-[2-(4-methoxybenzyloxy)ethyl]-guanidine], the IC50 worked out at 41 nM.

For the compound `CCCCCCN=C(N)NC(=O)c1nc(Cl)c(N)nc1N` [N-(3,5-diamino-6-chloropyrazine-2-carbonyl)-N'-hexylguanidine], the IC50 was found to be 87 nM.

For the compound `NC(=NCCc1ccc(O)cc1)NC(=O)c1nc(Cl)c(N)nc1N` [N-(3,5-diamino-6-chloropyrazine-2-carbonyl)-N'-[2-(4-hydroxyphenyl)ethyl]-guanidine], inhibition was half-maximal at 62 nM (IC50).

Turning to `NC(=NCCCCc1ccc(OCCCO)cc1)NC(=O)c1nc(Cl)c(N)nc1N` [N-(3,5-diamino-6-chloropyrazine-2-carbonyl)-N'-{4-[4-(3-hydroxypropoxy)phenyl]-butyl}guanidine], the IC50 was 7 nM.

Compound `NC(=NCCCCc1ccccc1)NC(=O)c1nc(Cl)c(N)nc1N` [N-(3,5-diamino-6-chloropyrazine-2-carbonyl)-N'-(4-phenylbutyl)guanidine] showed a half-maximal inhibitory concentration (IC50) of 29 nM.

Compound `COC(=O)c1ccc(CCCCN=C(N)NC(=O)c2nc(Cl)c(N)nc2N)cc1` [4-{4-[N'-(3,5-diamino-6-chloropyrazine-2-carbonyl)guanidino]-butyl}benzoic acid methyl ester] came in with a concentration for half-maximal inhibition (IC50) of 22 nM.

`NC(=NCCCOc1ccc(O)cc1)NC(=O)c1nc(Cl)c(N)nc1N` [N-(3,5-diamino-6-chloropyrazine-2-carbonyl)-N'-[3-(4-hydroxyphenoxy)propyl]-guanidine] registered an IC50 of 32 nM.

Consider `NC(=NCCCCc1ccccc1OCC(O)CO)NC(=O)c1nc(Cl)c(N)nc1N` (stereo not given) [N-(3,5-diamino-6-chloropyrazine-2-carbony)-N'-{4-[2-(2,3-dihydroxypropoxy)-phenyl]butyl}guanidine], for which 28 nM corresponded to half-maximal inhibition (IC50).

With `NC(=NCCCCCc1ccccc1)NC(=O)c1nc(Cl)c(N)nc1N` [N-(3,5-diamino-6-chloropyrazine-2-carbonyl)-N'-(5-phenylpentyl)guanidine], half-maximal inhibition (IC50) was put at 68 nM.

`COc1ccc(CCCN=C(N)NC(=O)c2nc(Cl)c(N)nc2N)cc1` [N-(3,5-diamino-6-chloropyrazine-2-carbonyl)-N'-[3-(4-methoxyphenyl)propyl]-guanidine]: the IC50 worked out at 124 nM.

For the compound `NC(=NCCCCc1ccc(N)cc1)NC(=O)c1nc(Cl)c(N)nc1N` [1-(4-(4-aminophenyl)butyl)-3-(3,5-diamino-2-chloropyrazine-6-carbonyl)guanidine], the IC50 stood at 21 nM.

Compound `NC(=NCCCCc1ccc(CO)cc1)NC(=O)c1nc(Cl)c(N)nc1N` [N-(3,5-diamino-6-chloropyrazine-2-carbonyl)-N'-[4-(4-hydroxymethylphenyl)-butyl]guanidine] showed an IC50 of 14 nM.

`NC(=NCCCCCCCCc1ccccc1)NC(=O)c1nc(Cl)c(N)nc1N` [N-(3,5-diamino-6-chloropyrazine-2-carbonyl)-N'-(8-phenyloctyl)guanidine] registered a concentration for half-maximal inhibition (IC50) of 477 nM.

As for `NC(=NCCCCc1cccc(OCC(O)CO)c1)NC(=O)c1nc(Cl)c(N)nc1N` (stereo not given) [N-(3,5-diamino-6-chloropyrazine-2-carbony)-N'-{4-[3-(2,3-dihydroxypropoxy)-phenyl]butyl}guanidine], the 50% inhibitory concentration (IC50) turned out to be 26 nM.

`COc1ccc(CCCCN=C(N)NC(=O)c2nc(Cl)c(N)nc2N)cc1` [N-(3,5-diamino-6-chloropyrazine-2-carbonyl)-N'-[4-(4-methoxyphenyl)butyl]-guanidine] displayed an IC50 of 15 nM.

For `NC(=NCCCCc1cccc(O)c1)NC(=O)c1nc(Cl)c(N)nc1N` [N-(3,5-diamino-6-chloropyrazine-2-carbonyl)-N'-[4-(5-hydroxyphenyl)butyl]-guanidine], the midpoint of inhibition, the IC50, lay at 20 nM.

Compound `CCCCCCCCN=C(N)NC(=O)c1nc(Cl)c(N)nc1N` [N-(3,5-diamino-6-chloropyrazine-2-carbonyl)-N'-octylguanidine] yielded an IC50 of 108 nM.

`NC(=NCCCCc1ccccc1OCCO)NC(=O)c1nc(Cl)c(N)nc1N` [N-(3,5-diamino-6-chloropyrazine-2-carbonyl)-N'-{4-[2-(2-hydroxyethoxy)phenyl]-butyl}guanidine] returned an IC50 of 31 nM.

The compound `COc1ccc(CCCCCN=C(N)NC(=O)c2nc(Cl)c(N)nc2N)cc1` [N-(3,5-diamino-6-chloropyrazine-2-carbonyl)-N'-[5-(4-methoxyphenyl)pentyl]-guanidine] returned an IC50 of 77 nM.

`NC(=NCCO)NC(=O)c1nc(Cl)c(N)nc1N` [N-(3,5-diamino-6-chloropyrazine-2-carbonyl)-N'-(2-hydroxyethyl)guanidine] had an IC50 of 107 nM.

With `NC(=NCCCCc1ccc(C(=O)O)cc1)NC(=O)c1nc(Cl)c(N)nc1N` [4-{4-[N'-(3,5-diamino-6-chloropyrazine-2-carbonyl)guanidino]-butyl}benzoic acid], the midpoint of inhibition, the IC50, lay at 51 nM.

The compound `NC(=NCCCc1ccc(O)cc1)NC(=O)c1nc(Cl)c(N)nc1N` [N-(3,5-diamino-6-chloropyrazine-2-carbonyl)-N'-[3-(4-hydroxyphenyl)propyl]-guanidine] showed an IC50 of 88 nM.

In turn, `NC(=NCCCCc1cccc(OCCO)c1)NC(=O)c1nc(Cl)c(N)nc1N` [N-(3,5-diamino-6-chloropyrazine-2-carbonyl)-N'-{4-[3-(2-hydroxyethoxy)phenyl]-butyl}guanidine] registered an IC50 of 17 nM.

One may read the IC50 as the midpoint of a concentration-inhibition curve. Lower therefore signals inhibition by little substance.
